Results taken from patent US9518038B2, “Condensation product of theanine derivative and carboxylic acid coumarin derivative, its intermediate, preparation method and use thereof” (SHANDONG YINGDONG YINGHAO BIOTECHNOLOGY, INC., priority 2012, dated 2016).
Marks after values point to notes of the source that are not given here.

What was measured:
[1] = tested on: Caski human cervical cancer cells; assay: MTT growth inhibition, Caski cells; assay type: cell-based; settings: Ca-Ski, 72 h after treatment, read-out: Drug concentration (IC50) at which 50% cancer cells survived
[2] = tested on: NF-κB; assay: Western Blotting, NF-κB level; assay type: cell-based; settings: human liver cancer cells, Lewis lung cancer cells and other cancer cell lines and tumor tissues, read-out: Effective concentration (IC50) for inhibition of NF-κB
Description: (§1) Antibodies: primary antibodies of VEGFR, EGFR, c-Met, K-Ras, H-Ras, Akt, NF-κB, Cyclin D1, ER-alpha, Dvl-1, Dvl-2, Dvl-3, MMP-9, MMP2, β-catenin, Bcl-2, Bax, p53, p21, E-cadherin and Caspase3 protein, purchased from American Cell Signaling Technology Company and Santa Cruz Technology Company; and H3 acetylation, H4 acetylation and HDAC (HDAC3, HDAC4 and the like) Antibody Sample Kits, purchased from Cell Signaling Technology Company of the U.S.
(§2) (3) polyacrylamide gel electrophoresis (SDS-PAGE): an equal amount of protein lysate sample was used to separate protein, film transfer, and blocking, treated with appropriate primary antibodies and secondary antibodies in sequence, and the film was washed, then the color was developed with ECL kit, and a blot protein band was detected by exposure of an X-ray film; and a Gel-Pro Analyzer was used for quantitative analysis of gray degree, optical density value of the control group and the drug treatment group in various concentration were respectively compared with that of internal reference, the obtained ratios were respectively compared with the control group, and the protein expression level was semi-quantified.

[3] = tested on: Nuclear β-catenin; assay: Western Blotting, nuclear β-catenin level; assay type: cell-based; settings: human liver cancer cells, Lewis lung cancer cells and other cancer cell lines and tumor tissues, read-out: Effective concentration (IC50) for inhibition of Nuclear β-catenin
Description: as §1, §2

[4] = target: T1, EZH2 (Homo sapiens, UniProt Q15910); assay: EZH2 enzyme activity in protein extracts of human tumor xenografts of treated mice (EZH2 Assay Kit); assay type: in vivo; settings: tumors excised 6 h after medication, SAHA 25 mg/kg
T1 construct: the EZH2 enzyme was replaced with tumor protein extracts in each group; from tissue; host or cells: human tumour xenografts excised from treated nude mice

[5] = Fluorescent imaging in vivo and in vitro; assay type: physicochemical; settings: 60 mg/kg body weight/0.2 ml
Protocol: Fluorescent images and wavelength ranges of the compounds as obtained in embodiments 1-7 were determined according to the literature method (Chen Y, et al., 2-(3-{1-Carboxy-5-[(6-[18F]fluoro-pyridine-3-carbonyl)-amino]-pentyl}-ureido)-pentanedioic acid, [18F]DCFPyL, a PSMA-based PET imaging agent for prostate cancer. Clin Cancer Res, 2011, 17(24):7645-53), and the results were shown in Table 3 and FIG. 1.
2. Experimental procedure: For in-vitro fluorescent imaging and detection: the compounds Ia-Ih as obtained in embodiments 1-7 were prepared in 1.5 ml plastic centrifugal tubes into a solution with the concentration of 60 mg/0.2 ml, fluorescent signals and images were respectively detected and recorded with a multifunctional microplate reader and an animal in-vivo imaging instrument under the following excitation and emission wavelength conditions, and the obtained results were shown in Table 3 and FIG. 1 (small test tube photos); and for the detection of fluorescent images in-vivo: after 16 h of fasting treatment of the experimental animals (while drinking water was normally supplied), solutions of the compounds Ia-Ih as obtained in embodiments 1-7 were prepared according to a concentration of 60 mg/kg body weight/0.2 ml, and intraperitoneally administered to the animal, the fluorescent images were detected and recorded with the animal in-vivo imaging instrument under the following excitation and emission wavelength conditions, the obtained results were shown in FIG. 1 (animal in-vivo imaged photos); wherein, the experimental excitation wavelength range was 360 nm-590 nm; and the detection wavelength range was 410 nm-700 nm.

[6] = tested on: human prostate cancer cells PC-3; assay: MTT growth inhibition, PC-3 cells; assay type: cell-based; settings: 72 h after treatment, read-out: Drug concentration (IC50) at which 50% cancer cells survived
[7] = tested on: HDAC3; assay: HDAC3 enzyme activity in nuclear extracts of human tumor xenografts of treated mice; settings: first value of the pair HDAC3 and HDAC4, SAHA 25 mg/kg
Protocol: For the detection of the effect of the drugs on enzyme activity of EZH2 and HDAC of in-vivo tumors, the tumors were separately excised after 6 h of medication, total proteins and nucleoproteins were extracted separately to detect and analyze the activity of the enzyme.
(2) 50 μl of diluted sample solution was added into each reaction well, the plate was sealed with a plate-sealing film and reacted at room temperature for 30 min;
(3) the plate-sealing film was carefully peeled off, the liquid was removed, dried, 150 μl of washing liquid was added into each well, stood for 30 s, then the liquid was removed, repeated twice, and dried;
(4) 2 μl of HDAC enzyme or tumor tissue nuclear extracts was respectively uniformly mixed with 28 μl of diluted sample solution, added into the wells, the plate was sealed with the plate-sealing film and reacted at 37° C. for 60 min;
(5) the plate was washed for three times, wherein the operation was the same as that in (3); and a diluted antibody capture working solution was added into each reaction well according to 50 μl/well and reacted on a shaking bed at room temperature for 60 min;
(6) the plate was washed for four times, wherein the operation was the same as that in (3);
(7) a diluted antibody detection working solution was added into each reaction well according to 50 μl/well and reacted at room temperature for 30 min;
(8) the plate was washed for five times, wherein the operation was the same as that in (3);
a color developing agent was added according to 100 μl/well, and performed dark development for 2-10 min;
(9) 50 μl of stop solution was added into each well for stopping the reaction when the color in the well with a standard product turned blue with medium intensity, the color immediately turned yellow from blue after the addition;
(10) the light absorbance (OD value) of each well was measured in sequence at the wavelength of 450 nm; wherein the measurement should be performed within 15 min after addition of the stop solution; and

[8] = tested on: human breast cancer cells MDA-MB-231; assay: MTT growth inhibition, MDA-MB-231 cells; assay type: cell-based; settings: 72 h after treatment, read-out: Drug concentration (IC50) at which 50% cancer cells survived
[9] = tested on: Akt; assay: Western Blotting, Akt level; assay type: cell-based; settings: human liver cancer cells, Lewis lung cancer cells and other cancer cell lines and tumor tissues, read-out: Effective concentration (IC50) for inhibition of Akt
Description: as §1, §2

T1 sequence (Q15910 whole entry): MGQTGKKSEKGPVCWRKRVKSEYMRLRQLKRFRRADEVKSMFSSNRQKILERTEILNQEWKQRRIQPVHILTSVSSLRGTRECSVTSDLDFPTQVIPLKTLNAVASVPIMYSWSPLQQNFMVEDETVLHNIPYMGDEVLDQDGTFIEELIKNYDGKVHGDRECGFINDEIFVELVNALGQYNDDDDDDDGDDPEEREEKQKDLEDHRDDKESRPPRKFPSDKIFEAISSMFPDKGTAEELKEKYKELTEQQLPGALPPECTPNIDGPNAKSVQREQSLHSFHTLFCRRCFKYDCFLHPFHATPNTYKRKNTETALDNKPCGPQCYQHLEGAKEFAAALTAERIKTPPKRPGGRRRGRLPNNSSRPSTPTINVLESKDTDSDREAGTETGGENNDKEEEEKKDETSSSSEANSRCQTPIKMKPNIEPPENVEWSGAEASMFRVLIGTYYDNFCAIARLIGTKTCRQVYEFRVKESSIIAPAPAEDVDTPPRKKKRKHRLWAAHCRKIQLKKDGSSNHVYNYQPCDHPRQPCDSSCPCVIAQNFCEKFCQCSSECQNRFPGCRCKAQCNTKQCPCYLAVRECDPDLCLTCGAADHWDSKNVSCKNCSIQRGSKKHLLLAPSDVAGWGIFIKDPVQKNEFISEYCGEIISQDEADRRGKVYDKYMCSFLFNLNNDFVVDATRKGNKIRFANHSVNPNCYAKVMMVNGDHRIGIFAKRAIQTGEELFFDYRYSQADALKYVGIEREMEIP
T1 sequence (O75530 whole entry partner): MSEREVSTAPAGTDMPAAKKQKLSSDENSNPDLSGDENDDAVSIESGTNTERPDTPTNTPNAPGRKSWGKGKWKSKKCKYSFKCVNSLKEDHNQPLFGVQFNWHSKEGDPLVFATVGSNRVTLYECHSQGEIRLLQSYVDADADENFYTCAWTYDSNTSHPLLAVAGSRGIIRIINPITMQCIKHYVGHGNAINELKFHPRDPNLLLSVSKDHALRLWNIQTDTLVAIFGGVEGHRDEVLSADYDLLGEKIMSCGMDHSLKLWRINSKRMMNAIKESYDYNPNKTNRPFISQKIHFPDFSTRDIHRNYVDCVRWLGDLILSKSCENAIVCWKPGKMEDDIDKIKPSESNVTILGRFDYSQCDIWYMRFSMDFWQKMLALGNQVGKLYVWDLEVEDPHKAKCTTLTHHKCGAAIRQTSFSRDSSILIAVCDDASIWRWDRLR
T1 sequence (Q15022 whole entry partner): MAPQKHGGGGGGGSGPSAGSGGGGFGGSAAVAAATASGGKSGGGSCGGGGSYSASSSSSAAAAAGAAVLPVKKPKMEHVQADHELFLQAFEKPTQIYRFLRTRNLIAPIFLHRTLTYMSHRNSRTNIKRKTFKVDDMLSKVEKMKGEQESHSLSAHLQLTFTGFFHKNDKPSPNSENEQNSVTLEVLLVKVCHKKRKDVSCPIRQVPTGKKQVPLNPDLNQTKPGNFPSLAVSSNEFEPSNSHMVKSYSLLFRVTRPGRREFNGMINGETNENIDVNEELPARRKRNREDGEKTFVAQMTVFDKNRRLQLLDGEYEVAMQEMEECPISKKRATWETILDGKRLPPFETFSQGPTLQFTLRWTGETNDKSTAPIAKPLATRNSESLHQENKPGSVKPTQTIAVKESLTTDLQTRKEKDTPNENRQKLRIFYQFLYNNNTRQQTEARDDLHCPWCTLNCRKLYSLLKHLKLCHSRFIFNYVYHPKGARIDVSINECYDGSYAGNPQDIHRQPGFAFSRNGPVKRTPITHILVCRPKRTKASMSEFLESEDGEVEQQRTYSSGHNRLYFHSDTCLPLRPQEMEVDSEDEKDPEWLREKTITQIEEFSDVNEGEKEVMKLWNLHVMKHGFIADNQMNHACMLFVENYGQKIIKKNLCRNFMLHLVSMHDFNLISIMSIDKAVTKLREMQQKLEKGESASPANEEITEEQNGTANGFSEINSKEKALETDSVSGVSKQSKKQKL

CCNC(=O)CC[C@@H](NC(=O)c1cc2cc(Cl)ccc2oc1=O)C(=O)OCC [Compound Ic, (R)-2-(6-CI-2-oxo-2H-benzopyran-3-carboxamido)-5-ethylamino-5-oxo-pentanoic acid ethyl ester]
IC50 [1]: 86 µM | IC50 [2]: < 100 µM | IC50 [3]: < 100 µM | decrease of EZH2 enzyme activity/inhibition rate ([4]; A549 tumor grown in vivo): 61%*(A549)- | decrease of EZH2 enzyme activity/inhibition rate ([4]; MCF7 tumor grown in vivo): 56%*(MCF7) | decrease of EZH2 enzyme activity/inhibition rate ([4]; MDA-MB231 tumor grown in vivo): 58%*(MDA-MB231) | decrease of EZH2 enzyme activity/inhibition rate ([4]; SMMC7721 tumor grown in vivo): 59%*(SMMC7721); | Emission (fluorescent wavelength range detectable in vivo and in vitro) [5]: 430-670 nm | Excitation (fluorescent wavelength range detectable in vivo and in vitro) [5]: 360-610 nm | IC50 [6]: 105 µM | decrease of HDAC3 enzyme activity/inhibition rate ([7]; A549 tumor grown in vivo): 71%* and | decrease of HDAC3 enzyme activity/inhibition rate ([7]; MCF7 tumor grown in vivo): 60%* and | decrease of HDAC3 enzyme activity/inhibition rate ([7]; MDA-MB231 tumor grown in vivo): 63%* and | decrease of HDAC3 enzyme activity/inhibition rate ([7]; SMMC7721 tumor grown in vivo): 65%* and | IC50 [8]: 87 µM | IC50 [9]: < 100 µM

CCNC(=O)CCC(NC(=O)c1cc2cc([N+](=O)[O-])ccc2oc1=O)C(=O)OCC (stereo in doubt) [Compound If, (R)-2-(6-nitro-2-oxo-2H-benzopyran-3-carboxamido)-5-ethylamino-5-oxo-pentanoic acid ethyl ester]
IC50 [1]: 120 µM | IC50 [2]: < 60 µM | IC50 [3]: < 90 µM | decrease of EZH2 enzyme activity/inhibition rate ([4]; A549 tumor grown in vivo): 65%*(A549)- | decrease of EZH2 enzyme activity/inhibition rate ([4]; MCF7 tumor grown in vivo): 66%*(MCF7) | decrease of EZH2 enzyme activity/inhibition rate ([4]; MDA-MB231 tumor grown in vivo): 63%*(MDA-MB231) | decrease of EZH2 enzyme activity/inhibition rate ([4]; SMMC7721 tumor grown in vivo): 64%*(SMMC7721); | Emission (fluorescent wavelength range detectable in vivo and in vitro) [5]: 430-650 nm | Excitation (fluorescent wavelength range detectable in vivo and in vitro) [5]: 360-610 nm | IC50 [6]: 171 µM | decrease of HDAC3 enzyme activity/inhibition rate ([7]; A549 tumor grown in vivo): 73%* and | decrease of HDAC3 enzyme activity/inhibition rate ([7]; MCF7 tumor grown in vivo): 67%* and | decrease of HDAC3 enzyme activity/inhibition rate ([7]; MDA-MB231 tumor grown in vivo): 65%* and | decrease of HDAC3 enzyme activity/inhibition rate ([7]; SMMC7721 tumor grown in vivo): 66%* and | IC50 [8]: 110 µM | IC50 [9]: < 90 µM

CCNC(=O)CCC(NC(=O)c1cc2cc(F)ccc2oc1=O)C(=O)OCC (stereo in doubt) [Compound Ie, (R)-2-(6-F-2-oxo-2H-benzopyran-3-carboxamido)-5-ethylamino-5-oxo-pentanoic acid ethyl ester]
IC50 [1]: 230 µM | IC50 [2]: < 60 µM | IC50 [3]: < 65 µM | decrease of EZH2 enzyme activity/inhibition rate ([4]; A549 tumor grown in vivo): 58%*(A549)- | decrease of EZH2 enzyme activity/inhibition rate ([4]; MCF7 tumor grown in vivo): 62%*(MCF7) | decrease of EZH2 enzyme activity/inhibition rate ([4]; MDA-MB231 tumor grown in vivo): 59%*(MDA-MB231) | decrease of EZH2 enzyme activity/inhibition rate ([4]; SMMC7721 tumor grown in vivo): 56%*(SMMC7721); | Emission (fluorescent wavelength range detectable in vivo and in vitro) [5]: 430-650 nm | Excitation (fluorescent wavelength range detectable in vivo and in vitro) [5]: 360-610 nm | IC50 [6]: 127 µM | decrease of HDAC3 enzyme activity/inhibition rate ([7]; A549 tumor grown in vivo): 70%* and | decrease of HDAC3 enzyme activity/inhibition rate ([7]; MCF7 tumor grown in vivo): 65%* and | decrease of HDAC3 enzyme activity/inhibition rate ([7]; MDA-MB231 tumor grown in vivo): 60%* and | decrease of HDAC3 enzyme activity/inhibition rate ([7]; SMMC7721 tumor grown in vivo): 63%* and | IC50 [8]: 90 µM | IC50 [9]: < 160 µM
